Experimental data: patent US11986659B2, “Modulation of neuronal NKCC1 as a therapeutic strategy for spasticity and related disorders” (Research Foundation of the City University of New York, priority 2018, dated 2024)

Columns and labels:
[1] = system: animals with spasticity following SCI; experiment: Stretch-apparatus test of spasticity (muscle resistance, EMG) in mice with SCI after bumetanide injection; type: in vivo, CD-1 mice
Text: (§1) Adult female CD-1 mice (n=120 weight, 27-37 g) were used for all of the animal studies performed. A total of 51 animals were used for the long-term stimulation studies that included four groups. Animals with SCI were randomly divided into three groups: a-tsDCS-treated group (n=16), a c-tsDCS-treated group (n=15), and a sham-treated group (n=10), and a non-injured control group (n=10). Subgroups of these animals were also used to study long-term changes in expression for KCC2, pKCC2, NKCC1, and pNKCC1. Injured animals with spasticity were used to test the immediate effect of tsDCS on rate-dependent depression (RDD) (n=6), while the relatively short-term effects of tsDCS on the expression of NKCC1 and pNKCC1 were studied in non-injured animals (n=10). Pharmacological studies involving bumetanide (NKCC1 blocker) were conducted with SCI animals (n=9) and non-injured control animals (n=3). Meanwhile, qPCR studies were conducted with non-injured control animals (n=41). All of the study protocols were approved by the College of Staten Island IACUC committee.
Following administration of a ketamine/xylazine cocktail (90/10 mg/kg, i.p.) to achieve deep anesthesia, a laminectomy at thoracic T10 vertebra was performed to expose the T13 spinal segment. An infinite horizon (IH) spinal cord impactor (IH-0400, Precision Systems & Instrumentation, VA, USA) was used to induce a contusive SCI force. The impact force level was 60 kdyn and was selected based on data collected from exploratory experiments that were conducted with this impactor. In these preliminary studies, contusion injuries were induced with increasing impact forces in order to optimize the SCI contusion force needed to produce spastic mice. Mice impacted at 60 kdyn produced ideal spastic behavior at approximately 2-3 weeks post-injury. Impact was applied by using a standard mouse tip (diameter=1.3 mm). Following the contusion procedure, overlying muscles and skin were sutured and the surgical site was covered with a layer of gentamicin sulfate ointment to prevent infection. Each mouse subsequently received a number and then was placed on a warming pad (30° C.) for recovery.
A computer-controlled stretch device was assembled in our laboratory from a stepper motor (DMX-UMD-23m, ARCUS Technology Inc., CA. USA), a foot presser mounted on a force-displacement transducer (FT03, GRASS Technologies/NATUS, CA, USA) connected to a bridge amplifier (ADInstruments, Colorado Springs, CO, USA), and a mouse holder (FIG. 1). The transducer was permanently fixed to a linear rail-guided carriage (SGB15NUU, ZNT Automatic Technology Co, Zhejiang, China). The rotational movement of the stepper motor is converted into linear displacement at the carriage by using a set of jointed flat-aluminum rods that are connected with swivel hub bearings. Two computer software programs were utilized to control the stepper motor and to perform the online (during) stretch and electromyogram (EMG) recordings. First, a stepper motor control software (DMX-UMD GUI, ARCUS Technology Inc.) was re-written to permit the execution of three consecutively timed stretches, with each stretch separated by two 10-s recovery intervals. The stepper motor was also programmed to provide three different stretch speeds: 18/s, 180/s, and 1800/s, which correspond to 3 RPM, 30 RPM, and 300 RPM, respectively. The second software package used was LabChart-7 bundled with PowerLab data acquisition system software (ADInstruments) which was used to gather and analyze data.
A mouse restraining system was fabricated in our laboratory (FIG. 1) from three components. 1) A clear Plexiglas acrylic tube served as the mouse holding chamber. 2) An internally adjustable support system made of a clear acrylic concave stabilization plate. The location of the plate was able to be adjusted linearly along the length of the chamber via a handle that protruded through a cutout that ran the entire length of the tube. […]

[2] = system: non-injured control animals; experiment: Stretch response in non-injured control animals after bumetanide injection; type: in vivo, CD-1 mice
Text: as §1, with “committee. […]” for “committee.”

[3] = 60 mg/kg, 5, 20, 30 and 45 min after injection vs baseline, p<0.001

CCCCNc1cc(C(=O)O)cc(S(N)(=O)=O)c1Oc1ccccc1 [bumetanide]
reductions in spasticity ([1]; 30 mg/kg, one hour after administration, n=5, data not shown): moderate reductions in spasticity | corresponding EMG [1, 3]: significant reduction | reduction in peak resistance (reflexive muscle resistance) [1, 3]: 34% | background activity and resting muscle tone on slow stretches ([1]; 60 mg/kg, thirty min after injection): reduce background activity and resting muscle tone | spasticity following bumetanide treatment ([1]; SCI mice, dose not given): spasticity was reduced | muscle resistance and concurrent EMG at low speed and high speed (FIG. 9) ([1]; following bumetanide injection, n=9 mice, vs baseline 2): decreases in muscle resistance and concurrent EMG | animals exhibiting a reduced reflexive stretch response ([2]; 60 mg/kg, non-injured control animals): 21% | reduction in reflexive muscle resistance in controls ([2]; after bumetanide injection, controls): 21 °/0
